Test results reported in paper PMC7707621, “Oxidized Juncuenin B Analogues with Increased Antiproliferative Activity on Human Adherent Cell Lines: Semisynthesis and Biological Evaluation” (Journal of Natural Products, 2020).
Values belong to the molecule of their own block, whether it stands above or below them.

Assays:
[1] = tested on: NIH/3T3 mouse embryonic fibroblast cells; test: MTT assay for tumor selectivity on NIH/3T3; format: cell-based; details: for inhibition at 10 µM / inhibition at 30 µM: read-out: Growth inhibition (% ± SEM), NIH
Method: (§1) The antiproliferative assays of the products were carried out by a standard MTT method on human breast (MCF-7, T47D), cervical (HeLa, SiHa, C33A), and ovarian (A2780) cancer cells, and NIH/3T3 mouse embryonic fibroblast cell lines. In the first step, the diastereomeric and racemic mixtures 1–11 and the starting compound, juncuenin B, were tested to obtain information about their antiproliferative activity.
(§2) The antiproliferative activity and tumor selectivity of the compounds were measured by standard MTT assays. Tumor cell lines MCF-7, T47D, HeLa, A2780, and noncancerous NIH/3T3 were provided by European Collection of Authenticated Cell Cultures (ECACC, Salisbury, UK); cell lines SiHa and C33A by LGC Standards GmbH (Wesel, Germany). All chemicals and materials used for the antiproliferative assays were purchased from Sigma Aldrich Ltd. (Budapest, Hungary).
(§3) Growth-inhibition properties of racemates and pure enantiomer compounds were determined by standard MTT assays on six human malignant gynecological cell lines (MCF-7, T47D, HeLa, SiHa, C33A, A2780). To investigate tumor selectivity, the MTT assay was repeated on mouse embryonic fibroblast cells (NIH/3T3) under the same conditions. All cell lines were maintained in minimal essential medium (MEM) supplemented with 10% fetal bovine serum, 1% nonessential amino acids, and 1% penicillin–streptomycin–amphotericin B mixture, and were stored in humidified air containing 5% CO2 at 37 °C. All cell types were seeded into 96–well plates at a density of 5000 with the exception of C33a, which was seeded at a density of 10 000 and treated by increasing concentrations (0.1–30 μM) of the compounds for 72 h under cell culturing conditions. After the incubation, 5 mg/mL MTT [3-(4,5-dimethylthiazol-2-yl)-2,5-diphenyltetrazolium bromide] solution was added to samples for 4 h and precipitated blue formazan crystals were dissolved in DMSO. Absorbance values of the samples were measured at 545 nm using a microplate reader (Stat Fax-2100, Awareness Technologies Inc., Palm City, FL, USA) and untreated cells were used as control. Normalized sigmoidal dose–response curves were fitted to the determined data and the IC50 values were calculated by GraphPad Prism 5.01 (GraphPad Software, San Diego, CA, USA). Cisplatin (Ebewe Pharma GmbH, Unterach, Austria) was used as a reference agent in the same concentration range.

MCF-7 cells = test: MTT antiproliferative assay on MCF-7; format: cell-based, human; details: for inhibition at 10 µM / IC50 / inhibition at 30 µM: Homo sapiens; for inhibition at 10 µM: MCF7, 10 μM; for inhibition at 10 µM / inhibition at 30 µM: read-out: Growth inhibition (% ± SEM), MCF-7; for IC50: MCF7, MTT, 0.1–30 μM, 72 h, mean ± SEM, read-out: calculated IC50 values, MCF-7; for inhibition at 30 µM: MCF7, 30 μM
Method: as §1, §2, §3

SiHa cells = test: MTT antiproliferative assay on SiHa; format: cell-based, human; details: for inhibition at 10 µM / IC50 / inhibition at 30 µM: Homo sapiens, SiHa; for inhibition at 10 µM / inhibition at 30 µM: read-out: Growth inhibition (% ± SEM), SiHa; for IC50: MTT, 0.1–30 μM, 72 h, mean ± SEM, read-out: calculated IC50 values, SiHa
Method: as §1, §2, §3

C33A cells = test: MTT antiproliferative assay on C33A; format: cell-based, human; details: for inhibition at 10 µM / inhibition at 30 µM: read-out: Growth inhibition (% ± SEM), C33a
Method: as §1, §2, §3

HeLa cells = test: MTT antiproliferative assay on HeLa; format: cell-based, human; details: for inhibition at 10 µM / inhibition at 30 µM: read-out: Growth inhibition (% ± SEM), HeLa
Method: as §1, §2, §3

A2780 cells = test: MTT antiproliferative assay on A2780; format: cell-based, human; details: for inhibition at 10 µM: A2780, 10 μM; for inhibition at 10 µM / inhibition at 30 µM: read-out: Growth inhibition (% ± SEM), A2780; for inhibition at 30 µM: A2780, 30 μM
Method: as §1, §2, §3

T47D cells = test: MTT antiproliferative assay on T47D; format: cell-based, human; details: for inhibition at 10 µM / IC50 / inhibition at 30 µM: Homo sapiens, T47D; for inhibition at 10 µM / inhibition at 30 µM: read-out: Growth inhibition (% ± SEM), T47d; for IC50: MTT, 0.1–30 μM, 72 h, mean ± SEM, read-out: calculated IC50 values, T47D
Method: as §1, §2, §3

IC50 (MCF-7 cells): > 30 µM
IC50 (HeLa cells; Homo sapiens, HeLa, MTT, 0.1–30 μM, 72 h, mean ± SEM, read-out: calculated IC50 values, HeLa): 25.9 ± 0.3 µM
IC50 (A2780 cells; Homo sapiens, A2780, MTT, 0.1–30 μM, 72 h, mean ± SEM, read-out: calculated IC50 values, A2780): 11.2 ± 0.3 µM
IC50 (T47D cells): 22.9 ± 1.6 µM
Structure (SMILES): C=CC1=C(C)C(=O)C=C2C3=C(CCC21OCC)C(C)(OCC)C(=O)C=C3 (single isomer, unassigned) [Compound 6a]
IC50 ([1]; Mus musculus, NIH3T3, MTT, 0.1–30 μM, 72 h, mean ± SEM, read-out: calculated IC50 values, NIH/3T3): 24.5 ± 1.9 µM
Growth inhibition (% ± SEM), MCF-7 (MCF-7 cells; 30 μM): 45.64±0.26%
inhibition at 10 µM (MCF-7 cells): 19.6 ± 1.7%
Growth inhibition (% ± SEM), SiHa (SiHa cells; 30 μM): 68.74±1.56%
inhibition at 10 µM (SiHa cells; 10 μM): < 10%
IC50 (SiHa cells): 29.7 ± 0.2 µM
Growth inhibition (% ± SEM), C33a (C33A cells; 10 μM): 21.08±1.92%
Growth inhibition (% ± SEM), C33a (C33A cells; 30 μM): 93.17±0.50%
IC50 (C33A cells; Homo sapiens, C-33-A, MTT, 0.1–30 μM, 72 h, mean ± SEM, read-out: calculated IC50 values, C33A): 14.1 ± 0.2 µM
Growth inhibition (% ± SEM), HeLa (HeLa cells; 30 μM): 67.85±1.23%
inhibition at 10 µM (HeLa cells; Homo sapiens, HeLa, 10 μM): < 10%
Growth inhibition (% ± SEM), A2780 (A2780 cells; 10 μM): 43.71±2.91%
Growth inhibition (% ± SEM), A2780 (A2780 cells; 30 μM): 93.85±0.75%
Growth inhibition (% ± SEM), T47d (T47D cells; 30 μM): 63.48±0.80%
inhibition at 10 µM (T47D cells; 10 μM): < 10%

IC50 (T47D cells): > 30 µM
Structure (SMILES): C=CC1=C(C)C(=O)C=C2c3ccc(O)c(C)c3CC[C@@]21OC [Compound 4a]
inhibition at 10 µM ([1]; Mus musculus, NIH3T3): 19.2 ± 1.41%
inhibition at 30 µM ([1]; Mus musculus, NIH3T3): 51.7 ± 1.68%
inhibition at 10 µM (MCF-7 cells): 61.5 ± 1.87%
inhibition at 30 µM (MCF-7 cells): 58.5 ± 0.86%
inhibition at 10 µM (SiHa cells; 10 μM): < 10%
inhibition at 30 µM (SiHa cells; 30 μM): 26.3 ± 1.36%
IC50 (SiHa cells): > 30 µM
inhibition at 10 µM (C33A cells; Homo sapiens, C-33-A, 10 μM): 58.41 ± 0.31%
inhibition at 30 µM (C33A cells; Homo sapiens, C-33-A, 30 μM): 66.6 ± 0.74%
inhibition at 10 µM (HeLa cells; Homo sapiens, HeLa, 10 μM): 88.1 ± 0.89%
inhibition at 30 µM (HeLa cells; Homo sapiens, HeLa, 30 μM): 62.3 ± 2%
inhibition at 10 µM (A2780 cells; Homo sapiens): 44.5 ± 2.01%
inhibition at 30 µM (A2780 cells; Homo sapiens): 73.18 ± 0.4%
inhibition at 10 µM (T47D cells; 10 μM): 37 ± 1.07%
inhibition at 30 µM (T47D cells; 30 μM): 48.1 ± 1.47%

IC50 (MCF-7 cells): 20.6 ± 0.3 µM
Structure (SMILES): C=CC1=C(C)C(=O)C=C2c3ccc(O)c(C)c3CC[C@@]21OCC [Compound 7a, 8a-ethoxy-1,7-dimethyl-6-oxo-8-vinyl-9,10-dihydrophenanthrene-2-ols]
activity against nontumoral NIH/3T3 cells (in words) ([1]; MTT): inactive
inhibition at 10 µM ([1]; Mus musculus, NIH3T3): 23.3 ± 1.48%
inhibition at 30 µM ([1]; Mus musculus, NIH3T3): 33.8 ± 1.74%
inhibition at 10 µM (MCF-7 cells): 41.7 ± 1.37%
inhibition at 30 µM (MCF-7 cells): 54.5 ± 1.33%
inhibition at 10 µM (SiHa cells; 10 μM): 17 ± 1.88%
inhibition at 30 µM (SiHa cells; 30 μM): < 10%
IC50 (SiHa cells): > 30 µM
inhibition at 10 µM (C33A cells; Homo sapiens, C-33-A, 10 μM): 73.18 ± 0.61%
inhibition at 30 µM (C33A cells; Homo sapiens, C-33-A, 30 μM): 86.42 ± 0.5%
inhibition at 10 µM (HeLa cells; Homo sapiens, HeLa, 10 μM): 71.1 ± 1.57%
inhibition at 30 µM (HeLa cells; Homo sapiens, HeLa, 30 μM): 86.1 ± 1.29%
inhibition at 10 µM (A2780 cells; Homo sapiens): 82.1 ± 0.54%
inhibition at 30 µM (A2780 cells; Homo sapiens): 84.75 ± 0.4%
inhibition at 10 µM (T47D cells; 10 μM): 57.4 ± 2.46%
inhibition at 30 µM (T47D cells; 30 μM): 57 ± 1.24%

Structure (SMILES): C=CC1=C(C)C(=O)C=C2C3=C(CCC21OCC)C(C)(OCC)C(=O)C=C3 (single isomer, unassigned) [Compound 6b]
Growth inhibition (% ± SEM), MCF-7 (MCF-7 cells; 10 μM): 14.17±2.25%
Growth inhibition (% ± SEM), MCF-7 (MCF-7 cells; 30 μM): 21.81±2.36%
Growth inhibition (% ± SEM), SiHa (SiHa cells; 10 μM): < 10%
Growth inhibition (% ± SEM), SiHa (SiHa cells; 30 μM): < 10%
Growth inhibition (% ± SEM), C33a (C33A cells; 10 μM): < 10%
Growth inhibition (% ± SEM), C33a (C33A cells; 30 μM): < 10%
Growth inhibition (% ± SEM), HeLa (HeLa cells; 10 μM): < 10%
Growth inhibition (% ± SEM), HeLa (HeLa cells; 30 μM): < 10%
Growth inhibition (% ± SEM), A2780 (A2780 cells; 10 μM): < 10%
Growth inhibition (% ± SEM), A2780 (A2780 cells; 30 μM): < 10%
Growth inhibition (% ± SEM), T47d (T47D cells; 10 μM): < 10%
Growth inhibition (% ± SEM), T47d (T47D cells; 30 μM): < 10%
